Assay results as given in US9388123B2, “LSD1-selective inhibitor having lysine structure” (KYOTO UNIVERSITY, priority 2012, dated 2016).
Where a name gives a salt, the structure may show the parent alone. Each block holds one compound with its values, some of them ahead of it.

Legend:
[1] = molecular target: T1, monoamine oxidase B (MAO-B) (Homo sapiens, UniProt P27338); assay: Monoamine oxidase inhibition test (MAO-Glo assay kit); format: biochemical; settings: room temperature, 1 hour
T1 construct: purchased Sigma-Aldrich
T1 sequence (P27338 1-520): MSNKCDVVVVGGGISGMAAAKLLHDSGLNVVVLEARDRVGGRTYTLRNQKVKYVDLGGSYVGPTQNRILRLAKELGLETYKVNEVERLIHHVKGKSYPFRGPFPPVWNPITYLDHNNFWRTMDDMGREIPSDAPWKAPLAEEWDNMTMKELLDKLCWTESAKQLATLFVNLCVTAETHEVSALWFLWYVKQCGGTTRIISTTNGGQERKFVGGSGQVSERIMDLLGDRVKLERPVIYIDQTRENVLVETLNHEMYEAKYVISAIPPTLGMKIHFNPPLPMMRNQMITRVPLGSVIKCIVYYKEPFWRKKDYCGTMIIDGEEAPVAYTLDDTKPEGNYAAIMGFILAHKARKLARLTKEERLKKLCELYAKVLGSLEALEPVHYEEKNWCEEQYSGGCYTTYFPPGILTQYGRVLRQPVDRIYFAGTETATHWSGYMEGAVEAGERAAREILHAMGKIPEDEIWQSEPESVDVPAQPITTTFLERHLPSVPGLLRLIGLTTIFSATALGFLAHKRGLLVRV

[2] = molecular target: T2, monoamine oxidase A (MAO-A) (Homo sapiens, UniProt P21397); assay: as above; format: biochemical; settings: room temperature, 1 hour
T2 construct: purchased Sigma-Aldrich
T2 sequence (P21397 1-527): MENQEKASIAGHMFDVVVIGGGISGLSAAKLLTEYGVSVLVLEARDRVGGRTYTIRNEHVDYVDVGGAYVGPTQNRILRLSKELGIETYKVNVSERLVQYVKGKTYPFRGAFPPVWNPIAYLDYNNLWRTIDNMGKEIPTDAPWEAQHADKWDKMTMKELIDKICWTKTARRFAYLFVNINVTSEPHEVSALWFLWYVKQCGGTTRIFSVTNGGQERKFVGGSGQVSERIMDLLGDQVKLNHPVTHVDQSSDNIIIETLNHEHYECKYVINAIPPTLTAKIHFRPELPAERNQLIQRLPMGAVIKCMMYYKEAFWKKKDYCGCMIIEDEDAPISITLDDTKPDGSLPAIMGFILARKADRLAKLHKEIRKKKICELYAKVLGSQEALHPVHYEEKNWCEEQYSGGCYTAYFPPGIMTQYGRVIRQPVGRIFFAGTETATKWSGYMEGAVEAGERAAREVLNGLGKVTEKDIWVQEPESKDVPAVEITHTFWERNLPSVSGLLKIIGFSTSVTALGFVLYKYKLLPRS

HeLa cells = assay: Cancer cell growth inhibition evaluation (MTT assay); format: cell-based; settings: Homo sapiens, 48 h, read-out: GI50 (μM) HeLa
Protocol: (§1) Evaluation was performed by measuring the inhibitory activities of a compound against the growth of a human cervical cancer-derived cell line, HeLa cells, and a human neuroblastoma cell line, SH-SY5Y cells. Details thereof are shown below. […] This assay involves, as a principle thereof, measuring an absorbance at the time of color development through a reaction of NADH, which is contained in the mitochondria of viable cells, and MTT to measure the amount of NADH. The assay was performed by the following procedure. […] After the culture, a compound was added. Then, the cells were cultured for an additional 48 hours, and then 5 mg/ml MTT liquid was added at 10 μl per well. The cells were cultured for an additional 3 hours in a CO2 incubator. A solubilization solution (0.04 mol/l hydrochloric acid-isopropanol) was added at 100 μl per well and the mixture was vigorously vortexed. After that, an absorbance at 560 nm was measured with Fusion-aFP (manufactured by PerkinElmer) and the amount of viable cells was determined.

SH-SY5Y cells = assay: as above; format: cell-based; settings: Homo sapiens, read-out: GI50 (μM) SH-SY5Y
Protocol: as §1

K562 = assay: Leukemia cell growth inhibition evaluation (WST-8); format: cell-based; settings: Homo sapiens, day 3 (72-hour culture), read-out: Human leukemia cell line GI50 (μM) K562
From the text: (§2) HL60, THP-1, K562, U937, KGla, HEL, and MDS-L were used as human leukemia cells. The cell lines are cell lines established from various subtypes such as acute myeloid leukemia, acute promyelocytic leukemia, acute monocytic leukemia, acute erythroid leukemia, and myelodysplastic syndromes, which progress to leukemia. Cells obtained by introducing leukemia fusion genes MLL/AF9, MLL/SEPT6, and MLL/ENL into the bone marrow of normal mice with a retrovirus so as to develop leukemia were used as murine leukemia cell lines.
(§3) This assay method involves, as a principle thereof, measuring an absorbance (a peak at from 450 nm to 490 nm) at the time of color development through a reaction of NADH, which is contained in the mitochondria of viable cells, and WST-8 to measure the amount of NADH. Specifically, the assay was performed by the following procedure.
(§4) The cells were plated at 50 μl, i.e., 5,000 cells per well in a 96-well microtiter plate. Next, a test compound dissolved in DMSO was mixed at various concentrations into the same medium, and 50 μl of each of the mixtures was added to each well. A medium was prepared so that the final concentration of the test compound was from 0 μM to 50 μM and so that the addition amount of DMSO was the same, and the cells were cultured in a CO2 incubator. On day 0 before the addition and on day 1, day 2, and day 3 after the addition, WST-8 reagent was added at 20 μl per well, and the cells were cultured for 1 hour in a CO2 incubator. After that, measurement was performed with ARVO X3 (manufactured by PerkinElmer).
(§5) Specifically, an absorbance at 450 nm was measured, an absorbance at 595 nm was measured in the same well, and the absorbance at 595 nm was subtracted from the absorbance at 450 nm to perform background correction for the well itself. Further, a well containing only a medium free of cells was subjected to the same measurement. A value in this case was also subtracted. Thus, the amount of viable cells was represented as a numerical value with correction of the influence of a medicament or a medium as well. Under a condition not containing the test compound (addition of only dimethyl sulfoxide), an exponential increase in number of viable cells on day 1, day 2, and day 3 in the stated order was confirmed.

KG1a = assay: Leukemia cell growth inhibition evaluation (WST-8); format: cell-based; settings: Homo sapiens, KG-1a; day 3 (72-hour culture); read-out: Human leukemia cell line GI50 (μM) KG1a
From the text: as §2, §3, §4, §5

THP1 = assay: Leukemia cell growth inhibition evaluation (WST-8); format: cell-based; settings: Homo sapiens, THP-1; day 3 (72-hour culture); read-out: Human leukemia cell line GI50 (μM) THP1
From the text: as §2, §3, §4, §5

U937 = assay: Leukemia cell growth inhibition evaluation (WST-8); format: cell-based; settings: Homo sapiens, U-937; day 3 (72-hour culture); read-out: Human leukemia cell line GI50 (μM) U937
From the text: as §2, §3, §4, §5

[3] = tested on: MLL/AF9 leukemia cell line; assay: Leukemia cell growth inhibition evaluation (WST-8); format: cell-based; settings: Mus musculus, day 3 (72-hour culture), read-out: Mouse MLL-fusion leukemia cell line GI50 (μM) MLL/AF9
From the text: as §2, §3, §4, §5

M7 = assay: Leukemia cell growth inhibition evaluation (WST-8); format: cell-based; settings: Homo sapiens; day 3 (72-hour culture); read-out: Human leukemia cell line GI50 (μM) M7
From the text: as §2, §3, §4, §5

[4] = tested on: MLL/ENL leukemia cell line; assay: Leukemia cell growth inhibition evaluation (WST-8); format: cell-based; settings: Mus musculus; day 3 (72-hour culture); read-out: Mouse MLL-fusion leukemia cell line GI50 (μM) MLL/ENL
From the text: as §2, §3, §4, §5

HL60 = assay: Leukemia cell growth inhibition evaluation (WST-8); format: cell-based; settings: Homo sapiens, HL-60; day 3 (72-hour culture); read-out: Human leukemia cell line GI50 (μM) HL60
From the text: as §2, §3, §4, §5

[5] = tested on: human leukemia cell lines; assay: Leukemia cell growth inhibition evaluation, summary in words; format: cell-based; settings: Table 5
From the text: as §2, §3, §4, §5

[6] = tested on: murine leukemia cell lines; assay: as above; format: cell-based; settings: Table 6
From the text: as §2, §3, §4, §5

HEL = assay: Leukemia cell growth inhibition evaluation (WST-8); format: cell-based; settings: Homo sapiens, day 3 (72-hour culture), read-out: Human leukemia cell line GI50 (μM) HEL
From the text: as §2, §3, §4, §5

MDS-L = assay: Leukemia cell growth inhibition evaluation (WST-8); format: cell-based; settings: Homo sapiens; day 3 (72-hour culture); read-out: Human leukemia cell line GI50 (μM) MDS-L
From the text: as §2, §3, §4, §5

[7] = tested on: bone marrow cells of normal mice; assay: Normal cell growth inhibition evaluation (colony forming ability in methylcellulose semi-solid medium); format: cell-based; settings: at 10 μM; 10 days culture; FIG. 1
From the text: In general, a semi-solid medium obtained by adding a cytokine involved in differentiation induction to a methylcellulose medium is used to evaluate a colony forming ability. Some of the bone marrow cells contain hematopoietic stem cells and precursor cells, which are sources of hematopoietic cells, and these cells can create a mass (called a colony) formed of several tens, several hundreds, and in some cases, several thousands of cells from a single cell on a semi-solid medium. The colony forming ability of the bone marrow cells may be evaluated by counting the number of the colonies. The colony forming ability in the semi-solid medium well reflects an actual supply ability and construction ability from the hematopoietic stem cells and precursor cells to the hematopoietic cells in vivo.
To 3 ml of MethoCult M3434 (methylcellulose-based semi-solid medium; StemCell Technologies; containing interleukin 3(IL-3), interleukin 6 (IL-6), erythropoietin (EPO), and stem cell factor (SCF)) were added 600,000 bone marrow cells of normal mice (suspended in 300 μl of IMDM medium), and the mixture was stirred well and plated at 1.1 ml per 3.5-cm culture dish. The cells were cultured under the conditions of 5% CO2 and 37° C. for 10 days in an incubator. A mass in which the number of cells was 50 or more was defined as a colony, and the number of colonies formed on each dish was counted.

SMILES: NC1CC1c1cccc(OCC[C@H](NC(=O)c2ccccc2)C(=O)NCc2ccccc2)c1 (stereo partly drawn) [Comp. Ex. 2, (S)-trans-N-3-[3-(2-aminocyclopropyl)phenoxy]-1-benzylcarbamoylpropylbenzamide hydrochloride, reference compound]
- IC50 [1]: 326 µM
- IC50 [2]: 129 µM
- GI50 (HeLa cells): 13 µM
- GI50 (SH-SY5Y cells): 27 µM
- GI50 (K562): 25 to 50 µM
- GI50 (KG1a): > 50 µM
- GI50 (THP1): > 50 µM
- GI50 (U937): 25 to 50 µM
- GI50 [3]: < 3.1 µM
- GI50 (M7): > 50 µM
- GI50 [4]: < 3.1 µM
- GI50 (HL60): 6.1 to 33 µM
- growth inhibitory / suppressing effect on the human leukemia cell lines (in words) [5]: a variation in growth inhibitory effect on the human leukemia cell lines depending on the cell lines
- growth inhibitory / suppressing effect on the murine leukemia cell lines (in words) [6]: high growth inhibitory effects

SMILES: O=C(N[C@@H](CCCCNC1CC1c1ccccc1)C(=O)NCc1ccc(Cl)cc1)c1ccc(-c2ccccc2)cc1 (stereo partly drawn) [Example 20, 2-[N-(4-Phenylbenzenecarbonyl)]amino-6-(trans-2-phenylcyclopropan-1-amino)-N-(4-chlorobenzyl)hexanamide Hydrochloride]
- IC50 [1]: > 100 µM
- IC50 [2]: > 100 µM
- GI50 (HeLa cells): 4 µM
- GI50 (SH-SY5Y cells): 1.4 µM

SMILES: O=C(N[C@@H](CCCCNC1CC1c1ccccc1)C(=O)NCc1cccc(Cl)c1)c1ccc(-c2ccccc2)cc1 (stereo partly drawn) [Example 21, 2-[N-(4-Phenylbenzenecarbonyl)]amino-6-(trans-2-phenylcyclopropan-1-amino)-N-(3-chlorobenzyl)hexanamide Hydrochloride]
- IC50 [1]: > 100 µM
- IC50 [2]: > 100 µM
- GI50 (HeLa cells): 4.3 µM
- GI50 (SH-SY5Y cells): 2.7 µM
- GI50 (HEL): < 1.3 µM
- GI50 (KG1a): 10 to 20 µM
- GI50 (MDS-L): < 1.3 µM
- GI50 (THP1): 10 to 20 µM
- GI50 (U937): 10 to 20 µM
- GI50 (HL60): 5 to 10 µM
- colony forming ability [7]: not inhibited
- growth inhibitory / suppressing effect on the human leukemia cell lines (in words) [5]: higher growth suppressing effects on the human leukemia cell lines than Comparative Example 2
- growth inhibitory / suppressing effect on the murine leukemia cell lines (in words) [6]: very high growth suppressing effects

- melting point: 101 to 103 °C
SMILES: CC(C)(C)c1ccc(C(=O)N[C@@H](CCCCNC2CC2c2ccccc2)C(=O)NCc2ccccc2)cc1 (stereo partly drawn) (as salt: hydrochloride) [Example 5, 2-[N-(4-tert-Butylbenzenecarbonyl)]amino-6-(trans-2-phenylcyclopropan-1-amino)-N-benzylhexanamide Hydrochloride]
